Measured values from patent publication US20230042729A1, “PEPTIDE CONSTRUCTS AND COMPOSITIONS” (DIET4LIFE APS, priority 2019, published 2023).
No end group written: not given here.

Assays:
trypsin = trypsin (Homo sapiens, UniProt P07477); assay: Stability studies of DC7-2: trypsin; type: in vitro ADME
[1] = Stability of peptides ex vivo in rodent intestine; type: in vitro ADME, mouse or rat; details: rodent intestine model of degradation
Protocol: 0,001 mg/ml of the indicated peptides were incubated with pieces of rodent intestine (mouse and rat intestine gave similar results) for up to 10 minutes at 37° C. Recovery of activity was tested with dose-response curves as indicated.
FIG. 9. Stability of peptides in rodent intestine. EC50 values for different peptides and different incubation times were calculated from FIG. 8 and recovered activity plotted as a function of time.
Peptides are degraded by proteases in the gastrointestinal tract. However the speed of this degradation depends on the sequence of the peptide. In order to measure stability of the […] peptide series and to compare with e.g. RRKPYIL, 10 or 50 mg (wet weight) of mouse or rat intestinal tissue (distal ileum) was equilibrated in V-bottom 24 well plates in 800 μl HBSS, 25 mM HEPES, pH 7.4 at 37° C. with shaking at 350 rpm. Identical amounts of different peptides (final concentration of 1 μg/ml) were added to the intestinal pieces and incubation continued. At various time points, 100 μl aliquots were removed and diluted into whey protein hydrolysate (final concentration of 10 mg/ml) to non-specifically compete protease activity. Peptide solutions were then diluted and tested for bioactivity (FIG. 8). Peptides incubated under same conditions but in absence of intestine served as controls (no degradation). […]

carboxypeptidases = assay: Stability studies of DC7-2: carboxypeptidases; type: in vitro ADME
[2] = Stability of peptides in intestine homogenate, remaining activity read in intestinal cells; type: in vitro ADME, mice; details: octapeptides; % activity left after 30 min incubation in intestine homogenate at 37° C.
Protocol: Small intestines from 20 Swiss-Webster males were homogenized in 350 ml Dulbecco's phosphate-buffered saline (PBS) (pH 7.4) (ThermoFischer Scientific, Denmark) with a IKA® basic 18 Ultra-Turrax tissue homogenizer set a speed 5 followed by filtration using 100 μm nylon mesh filter. Protein concentration was 6 mg/ml using the bicinconinic acid assay (ThermoFischer Scientific, Denmark) and bovine serum albumin as standard. The intestine homogenate was diluted 10 times in HBSS containing 25 mM HEPES (pH 7.4), and further diluted 30×, 90×, 270×, 810× or 2430× before incubation with peptides. All solutions were prewarmed to 37° C. before mixing with peptide solutions.
Peptides were incubated at 10^−5 M with dilutions of small intestine homogenate at 37° C. for 90 minutes with shaking. Reactions were stopped by addition of 1 M phosphoric acid (final 0.4 M, pH˜1.2). Each peptide incubation mix was then neutralized with NaOH to pH 7.2-7.4 and immediately tested for activity in intestinal cells. Control for zero degradation, i.e. addition of 1 M phosphoric acid prior to addition of intestine homogenate, was included for each peptide. […]
(§1) The 20 hexapeptides with systematic N-terminal substitutions (X-KPYIL) (Schafer-N, Denmark) and NT (8-13) was incubated at 10^−6 M in either FBS for 10 minutes or with 270× diluted intestinal homogenate for 30 minutes at 37° C. with shaking. The degradation was stopped with 1 M phosphoric acid. Peptide solutions were neutralized with NaOH (pH 7.2-7.4), diluted and immediately tested for bioactivity using murine intestinal cells. Determination of EC50 for stimulation of cells allowed calculation of recovered peptide.

chymotrypsin = chymotrypsin (Homo sapiens, UniProt P17538); assay: Stability studies of DC7-2: chymotrypsin; type: in vitro ADME
Sequence of chymotrypsin (P17538 19-263): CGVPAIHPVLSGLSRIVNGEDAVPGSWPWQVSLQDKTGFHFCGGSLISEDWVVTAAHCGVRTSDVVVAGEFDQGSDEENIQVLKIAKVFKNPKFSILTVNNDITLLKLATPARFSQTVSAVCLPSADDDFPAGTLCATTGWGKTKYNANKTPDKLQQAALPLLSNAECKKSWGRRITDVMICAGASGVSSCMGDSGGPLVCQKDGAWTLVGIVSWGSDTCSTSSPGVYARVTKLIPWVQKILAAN

murine intestinal cells = murine intestinal cells (Mus musculus, UniProt O88319); assay: Ca2+ flux / calcium response assay (cell signaling activity); type: cell-based
Sequence of murine intestinal cells (O88319 whole entry): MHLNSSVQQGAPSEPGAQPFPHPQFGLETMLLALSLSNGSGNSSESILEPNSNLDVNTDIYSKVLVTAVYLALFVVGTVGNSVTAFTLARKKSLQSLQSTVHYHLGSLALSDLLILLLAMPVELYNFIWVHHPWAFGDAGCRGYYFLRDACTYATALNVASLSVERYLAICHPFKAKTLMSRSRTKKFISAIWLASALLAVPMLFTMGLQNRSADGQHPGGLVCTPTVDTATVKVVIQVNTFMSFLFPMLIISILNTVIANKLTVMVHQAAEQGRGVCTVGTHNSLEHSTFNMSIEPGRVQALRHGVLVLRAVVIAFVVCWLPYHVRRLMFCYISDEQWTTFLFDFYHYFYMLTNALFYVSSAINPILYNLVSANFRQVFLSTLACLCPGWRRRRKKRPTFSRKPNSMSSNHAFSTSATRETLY
Protocol: Ca^2+ Flux Assay/Calcium Response Assay:
Elevation of intracellular calcium level was measured using the fluorescent calcium chelating dye Fluo-4 AM (ThermoFischer Scientific, Denmark). Briefly, cells were grown as a monolayer in 96-well tissue culture plates (Sarstedt, Germany) to near confluence in appropriate growth medium as described in the cell culture section.
All test compounds were dissolved in water, and then diluted in 1×HBSS containing 25 mM HEPES (pH 7.4), 1% BSA and 2% ink. […]

gastric pepsin = gastric pepsin (Homo sapiens, UniProt P0DJD8); assay: Stability studies of DC7-2: pepsin; type: in vitro ADME
Sequence of gastric pepsin (P0DJD8 63-388): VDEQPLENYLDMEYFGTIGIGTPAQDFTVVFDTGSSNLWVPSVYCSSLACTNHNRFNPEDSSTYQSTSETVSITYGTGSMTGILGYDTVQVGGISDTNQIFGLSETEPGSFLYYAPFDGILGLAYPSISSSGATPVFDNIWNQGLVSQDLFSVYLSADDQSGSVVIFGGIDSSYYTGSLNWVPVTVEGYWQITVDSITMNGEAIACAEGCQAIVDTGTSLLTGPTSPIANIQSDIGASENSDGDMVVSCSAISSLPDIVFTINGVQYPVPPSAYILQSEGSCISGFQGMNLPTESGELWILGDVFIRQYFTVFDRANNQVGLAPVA

[3] = Stability of peptides in serum, remaining activity read in intestinal cells; type: in vitro ADME, Bovine; details: octapeptides; fraction of peptide activity left after 10 min of incubation in serum at 37° C. compared with undigested sample
Protocol: All peptides were incubated at 10^−5 M with Fetal Bovine Serum (FBS; final concentration of 66.7%) (Sigma Aldrich, Denmark) at 37° C. for 3 hours. The peptide degradation was terminated using 1 M phosphoric acid (final 0.4 M, pH˜1.2) and neutralized to pH 7.2-7.4 with NaOH before testing activity in intestinal cells. As for small intestine homogenates, a zero degradation control was included for each peptide.
DC7-2, NT, DKPYIL and NT-(8-13) (final concentration of 10^−6 M) were incubated either with FBS or with 270× diluted intestinal homogenate at 37° C. for various time points with shaking. Degradation was stopped with 1 M phosphoric acid and the samples were subsequently neutralized and immediately tested with intestinal cells as described above. Control for zero degradation was included for each peptide as above.
as §1

[4] = molecular target: T1, commercial carboxypeptidase inhibitor (CPI) from Potato tuber (UniProt P01075)
T1 sequence: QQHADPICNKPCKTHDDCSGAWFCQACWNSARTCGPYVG

carboxypeptidase = assay: Carboxypeptidase activity in pancreatin (Hippuryl-L-phenylalanine); type: biochemical, porcine; details: 0.1 mg/ml pancreatin (FIG. 23D)
Description: FIG. 23. Enzymes in intestine homogenate and pancreatin.

[5] = molecular target: T2, trypsin inhibitor T9253 from chicken egg white, P01005
T2 chain: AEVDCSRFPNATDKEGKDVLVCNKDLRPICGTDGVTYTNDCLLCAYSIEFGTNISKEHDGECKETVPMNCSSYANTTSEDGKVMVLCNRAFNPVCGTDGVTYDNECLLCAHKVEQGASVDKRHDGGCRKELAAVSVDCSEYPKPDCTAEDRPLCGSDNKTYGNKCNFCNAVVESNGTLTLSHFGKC

[6] = molecular target: T3, trypsin inhibitor, T9128 from soybean, P01070
T3 chain: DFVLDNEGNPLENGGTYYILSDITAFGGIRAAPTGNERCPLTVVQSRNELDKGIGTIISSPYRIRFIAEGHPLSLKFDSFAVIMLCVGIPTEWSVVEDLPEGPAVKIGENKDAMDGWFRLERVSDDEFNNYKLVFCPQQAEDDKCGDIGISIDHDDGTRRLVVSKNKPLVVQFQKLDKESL

ASDKPYIL [Peptide 36036, A SDKPYIL]
sensitivity to trypsin (trypsin): sensitive
stability compared with the active fragment of neurotensin [1]: 100-1000 times
sensitivity to carboxypeptidases (carboxypeptidases): sensitive
Stability in intestine (activity remaining) [2]: 6.0%
sensitivity to chymotrypsin (chymotrypsin): sensitive
EC50 (murine intestinal cells): 3.51 nM
degradation by gastric pepsin (gastric pepsin): resilient
Stability in serum (activity remaining) [3]: 0.0988

carboxypeptidase in porcine pancreatin
carboxypeptidase activity (Hippuryl-L-phenylalanine substrate, slope of kinetic absorbance) [4]: carboxypeptidase activity, which was efficiently suppressed by a commercial carboxypeptidase inhibitor (CPI) from Potato tuber

CPI: commercial carboxypeptidase inhibitor from Potato tuber (QQHADPICNKPCKTHDDCSGAWFCQACWNSARTCGPYVG)
carboxypeptidase activity (carboxypeptidase): efficiently suppressed

B1: trypsin in porcine pancreatin (protein)
chain: IVGGYTCAANSIPYQVSLNSGSHFCGGSLINSQWVVSAAHCYKSRIQVRLGEHNIDVLEGNEQFINAAKIITHPNFNGNTLDNDIMLIKLSSPATLNSRVATVSLPRSCAAAGTECLISGWGNTKSSGSSYPSLLQCLKAPVLSDSSCKSSYPGQITGNMICVGFLEGGKDSCQGDSGGPVVCNGQLQGIVSWGYGCAQKNKPGVYTKVCNYVNWIQQTIAAN
trypsin activity (conversion of L-BAPA, slope of kinetic absorbance) [5]: Intestinal and pancreatic trypsin activity was inhibited in a dose-dependent manner by two specific trypsin inhibitors from soybean and chicken egg white, respectively
trypsin activity (conversion of L-BAPA, slope of kinetic absorbance) [6]: Intestinal and pancreatic trypsin activity was inhibited in a dose-dependent manner by two specific trypsin inhibitors from soybean and chicken egg white, respectively
